Tests used:
[1] = tested on: CD19+ B cells from CLL patients; type: cell-based; details: 0-10 uM FTY720; 15 CLL patients
Experimental: Cells: Blood was obtained from patients with B-cell CLL with informed consent under a protocol approved by the hospital internal review board. All patients examined in this series had immunophenotypically defined CLL as outlined by the modified 96 National Cancer Institute criteria. B-CLL cells were isolated from freshly donated blood using ficoll density gradient centrifugation (Ficoll-Paque Plus, Amershan Biosciences, Piscataway, N.J.). Isolated mononuclear cells were incubated in RPMI 1640 media (Gibco/Invitrogen, Carlsbad, Calif.) supplemented with 10% heat-inactivated fetal bovine serum (FBS, Hyclone Laboratories, Logan, Utah), 2 mM L-glutamine (Invitrogen, Carlsbad, Calif.), and penicillin (100 U/mL)/streptomycin (100 μg/ml) [Sigma-Aldrich, St. Louis] at 37° C. in an atmosphere of 5% CO2. Freshly isolated B-CLL cells were used in all experiments described herein. Enriched B-lymphocyte fractions were prepared by using MACS negative selection kit by Miltenyi Biotech (Auburn, Calif.) or by “Rosette-Sep” kit from Stem Cell Technologies (Vancouver, British Columbia, Canada) according to the manufacturer's instructions. Human B-lymphocyte cell lines Raji and Ramos were obtained from ATCC (Manassas, Va.) and the MEC cells were obtained from German cell line bank (Braunschweig, Germany). The 697-neo and 697-Bcl-2 cell lines were kind gift from Dr. John Reed (Burnham Institute, La Jolla, Calif.). Cells were cultured at 37° C. in an atmosphere of 5% CO2 in RPMI 1640 media (Gibco/Invitrogen, Carlsbad, Calif.) supplemented with 10% fetal bovine serum (Gibco/Invitrogen).
Analysis of cell viability and apoptosis: The cell viability was carried out by dual staining with Annexin V conjugated to flourescein-isothyocyanate (FITC) and Propidium iodide (PI) as described previously. Briefly, 1×10^6 cells were stained with Annexin V-FITC (BD Pharmingen) and Propidium iodide (BD Pharmingen) for 15 minutes in dark and analyzed by flow cytometry using a Beckman-Coulter EPICS XL cytometer (Beckman-Coulter, Miami, Fla.). Apoptotic cells were identified as Annexin V and/or PI positive cells. Cells excluding both FITC and PI were considered to be viable. The Annexin V^−/PI^− cells are represented as % live cells normalized to untreated controls.
B-CLL cells are reported to be resistant to apoptosis in-vivo. To systematically analyze the effects of FTY720 on B-CLL cells, purified CD19^+ cells from B-CLL patients were incubated with increasing concentrations of FTY720 ranging from 0, 0.5, 1, 1.5, 2.5, 5 or 10 uM. The cytotoxic effects were independently determined by flow cytometry using propidium iodide (PI) and Annexin V conjugated FITC reagents. Populations excluding both PI and Annexin V-FITC staining were considered viable. […]

ERK1/2 = assay: Western blot of ERK1/2 phosphorylation in Mino cells; type: cell-based, Human
Experimental: Binding of FTY720 accelerates homing of peripheral lymphocytes to lymph node and activation of […] leads to extracellular signal-related kinase 1/2 (ERK1/2) phosphorylation. To determine if FTY720 influenced phosphorylation status of ERK-1, Mino cells were treated with FTY720 and the ERK1/2 phosphorylation status was analyzed by westernblot analysis using phospho ERK-1/2 and ERK1/2 antibodies. […] Similar FTY720 induced time dependent phosphorylation of ERK1/2 was also observed in Jeko cell line (Data not shown). FTY720 induced activation Ras-Raf-MAP kinase signaling pathway resulting in activation of serine/threonine kinase may contribute to ERK1/2 phosphorylation. Consistent with hypothesis ERK1/2 phosphorylation has been reported to occur in cells treated with Sphingosie 1-phosphate, that shares structural similarity to FTY72014. The role of FTY720 induced Erk1/2 phosphorylation in either toxicity, deregulation of the proteins such as Cyclin D1 or Akt and/or accumulation cells in G1 with concomitant decrease in S phase remains to be tested. Nevertheless these studies have identified Cyclin D1 and Akt proteins as two potential biomarkers for FTY720 responsiveness in MCL patient cells.

[2] = tested on: PARP, Caspase 3, caspase 8 and caspase 9; assay: Western blot of PARP and caspases 3, 8, 9 in CLL cells; type: cell-based, Human
Experimental: Western blotting. Immunoblot assays were performed as described previously.(34) Cell lysates were prepared and quantified by the bicin choninic acid (BCA) method (Pierce, Rockford, Ill.). Lysates with 50 μg of total protein were separated using 10% sodium dodecyl sulfate-polyacrylamide-gel electrophoresis, and transferred to 0.2 μm nitrocellulose membranes (Schleicher & Schuell, Keene, N.H.). The blots were probed with indicated primary antibodies followed by Horseradish peroxidase (HRP)-conjugated goat anti-rabbit IgG or goat anti-mouse IgG (Bio-Rad Laboratories, Richmond, Calif.). Detection was made with chemiluminescent substrate (SuperSignal, Pierce Inc. Rockford, Ill.). The PARP (Ab-2) and Caspase 9 antibodies were purchased from Oncogene/Calbiochem/EMD Biosciences (San Diego, Calif.). The Caspase 3 (AR-14 caspase 3/cpp32 and caspase 8 (AR-18) antibodies were kind gift from Dr. John Reed (Burnham Institute, La Jolla, Calif.).
FTY720 induced apoptosis in CLL cells is not dependent on activation of caspases, the cysteine proteases of CED3/ICE family Several therapeutic agents such as glucocorticoids and chemotherapeutic agents such as fludarabine, chlorambucil and 2-chloro-2-deoxyadenosine induce cellular cytotoxicity in CLL cells through activation of caspases, the cysteine proteases of CED3/ICE family. […]

CCCCCCCCc1ccc(CCC(N)(CO)CO)cc1.Cl [FTY720, 2-Amino-2-[2-(4-octylphenyl)ethyl]propane 1,3-diol hydrochloride]
viability of CD19+ B cells from CLL patients [1]: dose and time dependent decrease in viability
earliest time of ERK1/2 phosphorylation (ERK1/2): 2 h
time of maximal ERK1/2 phosphorylation (ERK1/2): 4 h
PARP cleavage ([2]; 24 and 48 hours post treatment, CLL cells): failed to reveal PARP cleavage
caspases 3, 8 and 9 activation ([2]; FTY720 treated CLL cells): remained in precursor forms
